Laboratory results from PubChem BioAssay AID1845194 (Molecular Pharmacology Branch, DTP, NCI, 2023).
pIC50: −log10 of the molar value.

System: 287954-098-R-J1 tumor spheroid viability
Test: Anticancer human tumor 287954-098-R-J1 patient-derived Ewing sarcoma cell line growth inhibition
Details: spheroids with HUVEC and MSC; for pIC50: curve of first compound; for viability, T/C: stronger effect = lower value
How it was run: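 Single agents and combinations were tested on spheroids built from tumor cells plus HUVEC and hMSC, at half-log dilutions starting at or near clinical Cmax, else 10 microM; final DMSO 0.25% (v/v).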

[1] = second compound 30 pM, first compound 0.0316 µM
[2] = second compound 30 pM, first compound 0.1 µM
[3] = second compound 30 pM, first compound 0.316 µM
[4] = second compound 30 pM, first compound 1 µM
[5] = second compound 30 pM, first compound 3.16 µM
[6] = second compound 30 pM, first compound 10 µM
[7] = second compound 94.9 pM, first compound 0.0316 µM
[8] = second compound 94.9 pM, first compound 0.1 µM
[9] = second compound 94.9 pM, first compound 0.316 µM
[10] = second compound 94.9 pM, first compound 1 µM
[11] = second compound 94.9 pM, first compound 3.16 µM
[12] = second compound 94.9 pM, first compound 10 µM
[13] = second compound 0.0003 µM, first compound 0.0316 µM
[14] = second compound 0.0003 µM, first compound 0.1 µM
[15] = second compound 0.0003 µM, first compound 0.316 µM
[16] = second compound 0.0003 µM, first compound 1 µM
[17] = second compound 0.0003 µM, first compound 3.16 µM
[18] = second compound 0.0003 µM, first compound 10 µM
[19] = second compound 0.000949 µM, first compound 0.0316 µM
[20] = second compound 0.000949 µM, first compound 0.1 µM
[21] = second compound 0.000949 µM, first compound 0.316 µM
[22] = second compound 0.000949 µM, first compound 1 µM
[23] = second compound 0.000949 µM, first compound 3.16 µM
[24] = second compound 0.000949 µM, first compound 10 µM
[25] = second compound 0.003 µM, first compound 0.0316 µM
[26] = second compound 0.003 µM, first compound 0.1 µM
[27] = second compound 0.003 µM, first compound 0.316 µM
[28] = second compound 0.003 µM, first compound 1 µM
[29] = second compound 0.003 µM, first compound 3.16 µM
[30] = second compound 0.003 µM, first compound 10 µM
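Also: spheroids exposed to compound for 7 days before viability readout.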
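For viability, T/C in this document: luminescent signal taken as surrogate of viable cell content; 100% = DMSO vehicle control viability and lower means growth inhibition.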

CC(C)n1c(=O)n(C)c2cnc3cc(F)c(-c4ccc(OCCCN5CCCCC5)nc4)cc3c21 + COc1cc2c(cc1O)CCNC21CSC2c3c(OC(C)=O)c(C)c4c(c3C(COC1=O)N1C(O)C3Cc5cc(C)c(OC)c(O)c5C(C21)N3C)OCO4
pIC50 (second compound 30 pM): 5.34
pIC50 (second compound 94.9 pM): > 7.50
pIC50 (second compound 0.0003 µM): > 7.50
pIC50 (second compound 0.000949 µM): > 7.50
pIC50 (second compound 0.003 µM): > 7.50
viability, T/C [1]: 44.4%
viability, T/C [2]: 84.8%
viability, T/C [3]: 62.4%
viability, T/C [4]: 85.3%
viability, T/C [5]: 81.3%
viability, T/C [6]: 2.07%
viability, T/C [7]: 14.9%
viability, T/C [8]: 14.4%
viability, T/C [9]: 8.68%
viability, T/C [10]: 14.2%
viability, T/C [11]: 8.71%
viability, T/C [12]: 0.47%
viability, T/C [13]: 1.47%
viability, T/C [14]: 1.47%
viability, T/C [15]: 1.52%
viability, T/C [16]: 1.56%
viability, T/C [17]: 1.71%
viability, T/C [18]: 0.41%
viability, T/C [19]: 0.31%
viability, T/C [20]: 0.27%
viability, T/C [21]: 0.36%
viability, T/C [22]: 0.6%
viability, T/C [23]: 0.33%
viability, T/C [24]: 0.36%
viability, T/C [25]: 0.18%
viability, T/C [26]: 0.2%
viability, T/C [27]: 0.18%
viability, T/C [28]: 0.23%
viability, T/C [29]: 0.25%
viability, T/C [30]: 0.4%

COc1ccc([C@@H](O)c2cc(-c3ncnc4cc(N5CCOCC5)ccc34)c(F)cc2Cl)nn1 + COc1cc2c(cc1O)CCNC21CSC2c3c(OC(C)=O)c(C)c4c(c3C(COC1=O)N1C(O)C3Cc5cc(C)c(OC)c(O)c5C(C21)N3C)OCO4
pIC50 (second compound 30 pM): < 5.00
pIC50 (second compound 94.9 pM): < 5.00
pIC50 (second compound 0.0003 µM): 6.23
pIC50 (second compound 0.000949 µM): > 7.50
pIC50 (second compound 0.003 µM): > 7.50
viability, T/C [1]: 101%
viability, T/C [2]: 99.2%
viability, T/C [3]: 100%
viability, T/C [4]: 109%
viability, T/C [5]: 104%
viability, T/C [6]: 94.3%
viability, T/C [7]: 109%
viability, T/C [8]: 112%
viability, T/C [9]: 108%
viability, T/C [10]: 109%
viability, T/C [11]: 108%
viability, T/C [12]: 72.8%
viability, T/C [13]: 109%
viability, T/C [14]: 109%
viability, T/C [15]: 103%
viability, T/C [16]: 4.2%
viability, T/C [17]: 0.48%
viability, T/C [18]: 1.07%
viability, T/C [19]: 0.54%
viability, T/C [20]: 0.53%
viability, T/C [21]: 0.35%
viability, T/C [22]: 0.22%
viability, T/C [23]: 0.12%
viability, T/C [24]: 0.32%
viability, T/C [25]: 0.43%
viability, T/C [26]: 0.47%
viability, T/C [27]: 0.36%
viability, T/C [28]: 0.33%
viability, T/C [29]: 0.32%
viability, T/C [30]: 0.48%

O=C(c1cc(Cc2n[nH]c(=O)c3ccccc23)ccc1F)N1CCN(C(=O)C2CC2)CC1 + Cn1nnc2c(C(N)=O)ncn2c1=O
pIC50 (second compound 1 µM): 4.69
pIC50 (second compound 3.16 µM): 4.68
pIC50 (second compound 10 µM): 4.98
pIC50 (second compound 31.6 µM): 5.47
pIC50 (second compound 100 µM): 6.21
viability, T/C (second compound 1 µM, first compound 0.0949 µM): 97.5%
viability, T/C (second compound 1 µM, first compound 0.3 µM): 97.2%
viability, T/C (second compound 1 µM, first compound 0.949 µM): 106%
viability, T/C (second compound 1 µM, first compound 3 µM): 95.1%
viability, T/C (second compound 1 µM, first compound 9.49 µM): 86.2%
viability, T/C (second compound 1 µM, first compound 30 µM): 32.5%
viability, T/C (second compound 3.16 µM, first compound 0.0949 µM): 104%
viability, T/C (second compound 3.16 µM, first compound 0.3 µM): 101%
viability, T/C (second compound 3.16 µM, first compound 0.949 µM): 98.2%
viability, T/C (second compound 3.16 µM, first compound 3 µM): 105%
viability, T/C (second compound 3.16 µM, first compound 9.49 µM): 85.1%
viability, T/C (second compound 3.16 µM, first compound 30 µM): 34%
viability, T/C (second compound 10 µM, first compound 0.0949 µM): 107%
viability, T/C (second compound 10 µM, first compound 0.3 µM): 107%
viability, T/C (second compound 10 µM, first compound 0.949 µM): 93.6%
viability, T/C (second compound 10 µM, first compound 3 µM): 99%
viability, T/C (second compound 10 µM, first compound 9.49 µM): 53.7%
viability, T/C (second compound 10 µM, first compound 30 µM): 4.76%
viability, T/C (second compound 31.6 µM, first compound 0.0949 µM): 107%
viability, T/C (second compound 31.6 µM, first compound 0.3 µM): 103%
viability, T/C (second compound 31.6 µM, first compound 0.949 µM): 106%
viability, T/C (second compound 31.6 µM, first compound 3 µM): 56%
viability, T/C (second compound 31.6 µM, first compound 9.49 µM): 2.11%
viability, T/C (second compound 31.6 µM, first compound 30 µM): 1.97%
viability, T/C (second compound 100 µM, first compound 0.0949 µM): 104%
viability, T/C (second compound 100 µM, first compound 0.3 µM): 88.5%
viability, T/C (second compound 100 µM, first compound 0.949 µM): 27.7%
viability, T/C (second compound 100 µM, first compound 3 µM): 2.13%
viability, T/C (second compound 100 µM, first compound 9.49 µM): 1.91%
viability, T/C (second compound 100 µM, first compound 30 µM): 1.8%
